Data published in US11485751B2, “Apramycin derivatives” (WAYNE STATE UNIVERSITY, priority 2017, dated 2022).
≈ marks a conversion by molar mass, not a printed value.

What was measured:
WT clinical isolates = experiment: MIC broth microdilution, WT; format: cell-based; details: read-out: MIC WT, clinical isolates, IMM Univ. Zurich; wild type
From the text: (§1) Minimal inhibitory concentrations (MIC) have been determined by broth microdilution assays (CLSI. Methods for Dilution Antimicrobial Susceptibility Tests for Bacteria That Grow Aerobically; Approved Standard—Tenth Edition. CLSI document M07-A10. Wayne, Pa.: Clinical and Laboratory Standards Institute; 2015.).
(§2) Minimal inhibitory concentrations (MICs, […]) against clinical isolates from Institute of Medical Microbiology, Univ. Zurich, and the IC50 values for bacterial, human mitochondrial and human cytosolic ribosomes are indicated.
(§3) Minimal inhibitory concentrations (μg/ml) against clinical isolates from Institute of Medical Microbiology, Univ. Zurich, and the IC50 values for bacterial, human mitochondrial and human cytosolic ribosomes are indicated.
(§4) The Minimal inhibitory concentrations (MICs, μg/ml) against clinical isolates from Institute of Medical Microbiology, Univ Zurich, and the IC50 values for bacterial, human mitochondrial and human cytosolic ribosomes are indicated.

[1] = tested on: clinical isolates carrying AAC(3)-IV; experiment: MIC broth microdilution, AAC(3)-IV; format: cell-based; details: read-out: MIC AAC(3)-IV
From the text: as §1, §2, §3, §4

isolates carrying apmA = experiment: MIC broth microdilution, apmA; format: cell-based; details: apmA resistance gene
From the text: Minimal inhibitory concentrations (MIC) have been determined by broth microdilution assays (CLSI. Methods for Dilution Antimicrobial Susceptibility Tests for Bacteria That Grow Aerobically; Approved Standard—Tenth Edition. CLSI document M07-A10. Wayne, Pa.: Clinical and Laboratory Standards Institute; 2015.). […]
as §3, §4

bacterial ribosomes = experiment: in-vitro translation assay, bacterial ribosomes; format: biochemical
From the text: (§5) IC50 values for bacterial, human chimeric, and rabbit reticulocyte ribosomes have been determined by in-vitro translation assays as described previously (Proc. Nat. Ac. Sci USA 2012, 109(27):10984-10989).
as §2

[2] = tested on: human mitochondrial ribosomes; experiment: in-vitro translation assay, human mitochondrial (human chimeric) ribosomes; format: biochemical
From the text: as §5, §2

[3] = tested on: human cytosolic ribosomes; experiment: in-vitro translation assay, human cytosolic ribosomes; format: biochemical
From the text: as §5, §2

[4] = tested on: AG212, Escherichia coli ATCC25922; experiment: MIC reference strain AG212; format: cell-based; details: Escherichia coli, ATCC25922, read-out: MIC AG212 E. coli
From the text: as §1
(§6) Table 4 and 5 show the antibacterial activity of the compounds of the invention against bacterial reference strains (table 4) and against representative clinical isolates (table 5).
(§7) Legend to Tables: GEN, gentamicin; AMK, amikacin; PLZ, plazomicin; APR, apramycin; AG212, Escherichia coli ATCC25922; AG215, Klebsiella pneumonia; AG220, Pseudomonas aeruginosa ATCC27853; AG225, Acinetobacter baumannii pittii; AG290, Enterobacter cloacae; […], Mycobacterium smegmatis. MICs for AG192 have been determined in the presence of 0.5 μg/mL of ampicillin in the medium to mimic the synergistic effect of aminoglycoside and β-lactam antibiotics combination therapy in the treatment of Enterococcus infections in humans.

[5] = tested on: AG215, Klebsiella pneumonia; experiment: MIC reference strain AG215; format: cell-based; details: Klebsiella pneumoniae, read-out: MIC AG215 K. pneumonia
From the text: as §1, §6, §7

[6] = tested on: AG290, Enterobacter cloacae; experiment: MIC reference strain AG290; format: cell-based; details: Enterobacter cloacae, read-out: MIC AG290 E. cloacae
From the text: as §1, §6, §7

[7] = tested on: AG220, Pseudomonas aeruginosa ATCC27853; experiment: MIC reference strain AG220; format: cell-based; details: Pseudomonas aeruginosa, ATCC27853, read-out: MIC AG220 P. aeruginosa
From the text: as §1, §6, §7

[8] = tested on: AG225, Acinetobacter baumannii pittii; experiment: MIC reference strain AG225; format: cell-based; details: Acinetobacter baumannii, read-out: MIC AG225 A. baumannii
From the text: as §1, §6, §7

[9] = tested on: SZ380, Mycobacterium smegmatis; experiment: MIC reference strain SZ380; format: cell-based; details: Mycolicibacterium smegmatis, read-out: MIC SZ380 M. smegmatis
From the text: as §1, §6, §7

ATCC19977 M. abcessus = experiment: MIC reference strain ATCC19977; format: cell-based; details: read-out: MIC ATCC19977 M. abcessus
From the text: as §1, §6

AG001 E. coli WT = experiment: Antibacterial activity, clinical isolate AG001; format: cell-based
From the text: as §1, §6

AG173 E. coli AAC(3)-IV = experiment: Antibacterial activity, clinical isolate AG173; format: cell-based
From the text: as §1, §6

AG038 MRSA = experiment: Antibacterial activity, clinical isolate AG038; format: cell-based
From the text: as §1, §6

AG031 P. aer. APH(3′)-II = experiment: Antibacterial activity, clinical isolate AG031; format: cell-based; design: unit not given here
From the text: as §1, §6

[10] = tested on: Engineered E. coli pH430 WT; experiment: Activity, engineered E. coli pH430 WT; format: cell-based; details: wild type
From the text: as §1

[11] = tested on: Engineered E. coli pH424 armA; experiment: Activity against G1405-methylated 16S-rRNA, E. coli pH424 armA; format: cell-based
From the text: as §1

[12] = tested on: E. coli AG153 AAC(3)-II APH(3′)-II rmtB; experiment: Activity against G1405-methylated 16S-rRNA, clinical isolate AG153; format: cell-based
From the text: as §1

[13] = tested on: K. pneum. AG269 AAC(3)-II AAC(6′)-I rmtB; experiment: Activity against G1405-methylated 16S-rRNA, clinical isolate AG269; format: cell-based
From the text: as §1

[14] = tested on: Enterob. AG302 AAC(3)-II AAC(6′)-I rmtC; experiment: Activity against G1405-methylated 16S-rRNA, clinical isolate AG302; format: cell-based
From the text: as §1

[15] = tested on: A baum. AG227 APH(3′)-I armA; experiment: Activity against G1405-methylated 16S-rRNA, clinical isolate AG227; format: cell-based
From the text: as §1

AG163 E. coli APH(3′)-I = experiment: Antibacterial activity, clinical isolate AG163; format: cell-based
From the text: as §1, §6

Row | Structure (SMILES) | MIC (WT clinical isolates) [µg/mL] | MIC [1] [µg/mL] | MIC (isolates carrying apmA) [µg/mL] | IC50 (bacterial ribosomes) [µM] | IC50 [2] [µM] | IC50 [3] [µM] | MIC [4] [µg/mL] | MIC [5] [µg/mL] | MIC [6] [µg/mL] | MIC [7] [µg/mL] | MIC [8] [µg/mL] | MIC [9] [µg/mL] | MIC (ATCC19977 M. abcessus) [µg/mL] | Antibacterial activity AG001 E. coli WT (AG001 E. coli WT) | Antibacterial activity AG173 E. coli AAC(3)-IV (AG173 E. coli AAC(3)-IV) | Antibacterial activity AG038 MRSA (AG038 MRSA) | Activity E. coli pH430 WT [10] | Activity E. coli pH424 armA [11] | Activity E. coli AG153 AAC(3)-II APH(3′)-II rmtB [12] | Activity K. pneum. AG269 AAC(3)-II AAC(6′)-I rmtB [13] | further results
1 | CNC1C(O)C2O[C@H](O[C@@H]3C(N)C[C@@H](N)[C@@H](O)[C@H]3OCC(O)CO)C(N)C[C@@H]2O[C@@H]1O[C@H]1OC(CO)[C@@H](N)[C@H](O)C1O (some centres unmarked) [DC208] | 4 to 8 (≈ 6.52 to 13 µM) | 64 (≈ 104 µM) | > 128 | 0.21 | 434 | > 1000 | 8 | 4 | 4 | 16 to 32 | 16 | 0.5 | 2 (≈ 3.26 µM) | 8 | >64 | 8-16 | 4-8 | 2 | 8 | 4 | Antibacterial activity AG031 P. aer. APH(3′)-II (AG031 P. aer. APH(3′)-II): 32; Activity Enterob. AG302 AAC(3)-II AAC(6′)-I rmtC [14]: 4; Activity A baum. AG227 APH(3′)-I armA [15]: 8
2 | CN[C@H]1C(O)C2O[C@H](O[C@@H]3C(N)C[C@@H](N)[C@@H](O)[C@H]3OCCCN)C(N)C[C@@H]2O[C@@H]1O[C@H]1OC(CO)[C@@H](N)[C@H](O)C1O (some centres unmarked) [DC213] | 4 (≈ 6.7 µM) | 64 (≈ 107 µM) | 64 to 128 (≈ 107 to 215 µM) | 0.21 | 327 | 210 | 4 to 8 | 2 | 4 to 8 | 8 | 8 | 0.25 | 1 (≈ 1.68 µM) | 16 | 128 | 4 | 4 | 4 | 32 | 4-8 | Antibacterial activity AG031 P. aer. APH(3′)-II (AG031 P. aer. APH(3′)-II): 16-32; Activity Enterob. AG302 AAC(3)-II AAC(6′)-I rmtC [14]: 4-8; Activity A baum. AG227 APH(3′)-I armA [15]: 4-8
3 | CN[C@H]1C(O)C2O[C@H](O[C@@H]3C(N)C[C@@H](N)[C@@H](O)[C@H]3OCC(O)CN)C(N)C[C@@H]2O[C@@H]1O[C@H]1OC(CO)[C@@H](N)[C@H](O)C1O (some centres unmarked) [DC209] | 2 to 4 (≈ 3.26 to 6.53 µM) | 8 (≈ 13.1 µM) | 64 to 128 (≈ 104 to 209 µM) | 0.04 | 146 | 105 | 2 to 4 | 1 | 1 | 2 to 4 | 4 | 0.125 | 0.5 to 1 (≈ 0.816 to 1.63 µM) | 2 | 32 | 1-2 | 2-4 | 2 | 2-4 | 1 | Antibacterial activity AG163 E. coli APH(3′)-I (AG163 E. coli APH(3′)-I): 4; Antibacterial activity AG031 P. aer. APH(3′)-II (AG031 P. aer. APH(3′)-II): 4; Activity Enterob. AG302 AAC(3)-II AAC(6′)-I rmtC [14]: 2; Activity A baum. AG227 APH(3′)-I armA [15]: 2-4
4 | CN[C@H]1C(O)C2O[C@H](O[C@@H]3C(N)C[C@@H](NC(=O)C(O)CCN)[C@@H](O)[C@H]3O)C(N)C[C@@H]2O[C@@H]1O[C@H]1OC(CO)[C@@H](N)[C@H](O)C1O (some centres unmarked) [DC191] | 2 to 4 (≈ 3.12 to 6.24 µM) | 4 to 8 (≈ 6.24 to 12.5 µM) | 8 (≈ 12.5 µM) | 0.2 | 98 | 87 | 2 | 1 to 2 | 2 | 4 | 8 | 0.5 | 2 (≈ 3.12 µM) | 8 | 4-8 | 4 | 2-4 | 2 | 4 | 2 | Activity Enterob. AG302 AAC(3)-II AAC(6′)-I rmtC [14]: 2-4; Activity A baum. AG227 APH(3′)-I armA [15]: 4
